Assay results reported in publication PMC8541342, “Expression, Purification and Refolding of a Human NaV1.7 Voltage Sensing Domain with Native-like Toxin Binding Properties” (Toxins, 2021).
“Also recorded” adds a separate entry of the source.

Experiments:
[1] = test system: F813A and D816A mutants of NaV1.7 VSD2 in DMPC vesicles; assay: MST binding to mutant VSD2 compared with WT (overlay, Figure S6); design: species or system human; conditions: F813A and D816A vs WT VSD2 in DMPC
Method: (Supplementary Material, Figure S5). […] Lastly, it is additional confirmation that our recombinant system captures details of the interactions that correspond to those with full-length channel in native membranes.
The analysis of the MST binding titrations was carried out with the NanoTemper analy sis software, and the relative fluo-rescence measurements and fitted binding cur ves were combined into a single graph to illustrate the rightshift (lower binding affinity) in both mutants. Based on this analysis, both Phe 813 and Asp 816 appear to play an important role in […]

mice = conditions: ref [9]; cited from earlier work
From the text: This system opens up possibilities for detailed biophysical studies of binding interactions with toxins and other drug candidates for the development of new non-addictive pain therapeutics targeting NaV1.7. In addition, because the protein is expressed in E. coli, it also enables the preparation of isotope-labeled samples or the introduction of unnatural amino acids for structural and functional studies.

full-length NaV1.7 = conditions: cited from earlier work
[2] = Dynamic light scattering particle size; assay type: physicochemical; conditions: DLS, VSD2 in DMPC ~40 μM, fixed-angle, 25 °C, spherical geometry assumed
Method: A Brookhaven NanoBrook series instrument was used to perform dynamic light scattering (DLS). The sample in this experiment was the VSD in DMPC solution prepared as described above at a concentration of ~40 μM. Sample was placed into a 1 cm quartz cuvette, and fixed-angle DLS was performed at 25 °C. Measurements of fixed-angle scattering were averaged over time intervals and, therefore, gave the correlation function, which in turn yielded the particle size distribution (assuming exponential correlation), reported as diameter in nm. This processing was done using the NanoBrook instrument analysis software. Particle size analysis assumes spherical geometry.

## CC[C@H](C)[C@@H]1NC(=O)[C@@H]2CSSC[C@@H]3NC(=O)[C@H](C(C)C)NC(=O)[C@H](CC(C)C)NC(=O)[C@H](CC(N)=O)NC(=O)[C@@H]4CCCN4C(=O)[C@H](CCCNC(=N)N)NC(=O)[C@H](CSSC[C@H](NC(=O)[C@@H](N)CC(=O)O)C(=O)N[C@@H](CC(C)C)C(=O)NCC(=O)N[C@@H](Cc4ccccc4)C(=O)N[C@@H](CCSC)C(=O)N[C@@H](CCCNC(=N)N)C(=O)N[C@@H](CCCCN)C(=O)N2)NC(=O)[C@H](CSSC[C@@H](C(=O)N[C@@H](CCCCN)C(=O)N[C@@H](Cc2ccc(O)cc2)C(=O)N[C@H](C(=O)N[C@@H](Cc2ccccc2)C(=O)O)C(C)C)NC(=O)[C@H](Cc2c[nH]c4ccccc24)NC(=O)[C@H](CCCCN)NC(=O)[C@H](Cc2c[nH]cn2)NC(=O)[C@H]([C@@H](C)O)NC(=O)[C@H](CCCNC(=N)N)NC(=O)[C@H](CO)NC3=O)NC(=O)[C@H](CCCCN)NC(=O)[C@H](CC(=O)O)NC(=O)[C@H](CC(N)=O)NC(=O)[C@H](CC(=O)O)NC(=O)[C@@H]2CCCN2C1=O [GpTx-I]
[1]
  change in binding affinity for mutants (in words): decreases in GpTx-I binding affinity; also recorded: substantial reduction in binding affinity
mice
  analgesic effects in mice (in words): analgesic effects superior to morphine in mice; also recorded: exhibits analgesic effects in mice
full-length NaV1.7
  IC50: 10 nM

B1: VSD2/DMPC complex: recombinant refolded NaV1.7 VSD of repeat II, residues 732–860 (UniProt ID Q15858-3), reconstituted into DMPC vesicles (protein)
chain: DPFVDLAITICIVLNTLFMAMEHHPMTEEFKNVLAIGNLVFTGIFAAEMVLKLIAMDPYEYFQVGWNIFDSLIVTLSLVELFLADVEGLSVLRSFRLLRVFKLAKSWPTLNMLIKIIGNSVGALGNLTL
[2]
  mean particle diameter / size distribution maximum: roughly 80 nm
